Read-outs that look alike come from different tables or passages of the source.
Columns and labels:
full length human FXR = target: T1, full length human FXR (Homo sapiens, UniProt Q96RI1); test: transactivation of FXR mediated transcription in a HEK293 reporter cell line (luciferase); type: cell-based; conditions: for Emax: HEK293, read-out: EFFIC AVG (average efficacy, % activity relative to CDCA control agonist), relative to CDCA control agonist; for EC50: HEK293 FXR reporter cell line
T1 construct: expressed in transfected cells
T1 sequence (Q96RI1 1-472 isoform Q96RI1-2): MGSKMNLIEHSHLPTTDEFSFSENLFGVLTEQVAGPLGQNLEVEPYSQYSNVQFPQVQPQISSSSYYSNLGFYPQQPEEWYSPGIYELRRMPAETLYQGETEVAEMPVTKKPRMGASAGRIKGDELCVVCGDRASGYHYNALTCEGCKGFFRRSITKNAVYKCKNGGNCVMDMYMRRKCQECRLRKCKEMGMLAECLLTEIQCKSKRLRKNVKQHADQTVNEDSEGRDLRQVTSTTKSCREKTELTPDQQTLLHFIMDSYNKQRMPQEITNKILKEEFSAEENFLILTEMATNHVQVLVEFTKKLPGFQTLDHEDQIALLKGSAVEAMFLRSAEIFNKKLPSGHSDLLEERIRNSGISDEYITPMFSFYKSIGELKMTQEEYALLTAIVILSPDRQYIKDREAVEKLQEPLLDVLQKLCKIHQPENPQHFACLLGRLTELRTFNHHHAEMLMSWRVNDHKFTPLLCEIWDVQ
T1 sequence (P19793 1-462 partner): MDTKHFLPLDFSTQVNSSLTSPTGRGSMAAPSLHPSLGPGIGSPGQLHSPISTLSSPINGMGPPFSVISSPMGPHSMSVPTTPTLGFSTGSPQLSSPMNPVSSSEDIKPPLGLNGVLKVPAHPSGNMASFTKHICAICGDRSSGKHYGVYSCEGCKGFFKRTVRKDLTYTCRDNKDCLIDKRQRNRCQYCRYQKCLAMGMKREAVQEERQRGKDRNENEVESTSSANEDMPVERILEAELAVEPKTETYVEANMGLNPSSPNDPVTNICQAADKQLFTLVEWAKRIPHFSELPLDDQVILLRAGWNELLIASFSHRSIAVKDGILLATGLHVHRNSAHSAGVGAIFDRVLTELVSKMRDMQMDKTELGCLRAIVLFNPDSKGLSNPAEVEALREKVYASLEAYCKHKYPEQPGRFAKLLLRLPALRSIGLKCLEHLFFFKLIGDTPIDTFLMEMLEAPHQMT
Excerpt: Tables 3, 4, 5 and 6 illustrate the preferred compounds according to the invention that can mediate transactivation of FXR mediated transcription in a HEK293 reporter cell line.
Stable HEK293FXR reporter cell lines were generated by stably transfecting with the pTRexDest30 (Invitrogen) derivatives pTRexDest30-hFXR, pTRexDest30-hRXR and the pGL2promoter (Promega) derivative pGL2promoter-FXRRE. The full length human FXR (accession U68233) and the full length human RXRα (accession P19793) were cloned into the pTRexDest30 applying the manufacturer protocols for the Gateway™ system (Invitrogen).
The FXR response elements were cloned (upper case and undrelined). 5′-cccaGGGTGAaTAACCTcggggctctgtccctccaatcccaGGGTGAaTAACCTcggg 3′ (SEQ ID NO. 5) was created from the human IBAB-P promoter (Grober et al 1999, JBC 274, pp. 29749-29754). A stable clone was selected and seeded at a density of […] cells per well in 48 well plates. Luciferase reporter activity was measured in duplicates from extracts of cells after incubating cells in culture medium (DMEM [Gibco-BRL]+10% FCS [PAA laboratories]) for 16 hours (5% CO2, 37° C.) containing 0.5% DMSO (control) or 0.5% DMSO with increasing concentrations of TR0800012996.

human FXR alpha (NR1H4) = target: T2, human FXR alpha (NR1H4) (Homo sapiens, UniProt Q96RI1); test: FXR binding / FXR-Tif 2 coactivator interaction, LANCE TR-FRET
T2 construct: agonist activity at the NR1H4 human nuclear receptor; fused on or other part: GST at the N-terminus (pDest15) in the TR-FRET test
T2 sequence (Q96RI1 1-486): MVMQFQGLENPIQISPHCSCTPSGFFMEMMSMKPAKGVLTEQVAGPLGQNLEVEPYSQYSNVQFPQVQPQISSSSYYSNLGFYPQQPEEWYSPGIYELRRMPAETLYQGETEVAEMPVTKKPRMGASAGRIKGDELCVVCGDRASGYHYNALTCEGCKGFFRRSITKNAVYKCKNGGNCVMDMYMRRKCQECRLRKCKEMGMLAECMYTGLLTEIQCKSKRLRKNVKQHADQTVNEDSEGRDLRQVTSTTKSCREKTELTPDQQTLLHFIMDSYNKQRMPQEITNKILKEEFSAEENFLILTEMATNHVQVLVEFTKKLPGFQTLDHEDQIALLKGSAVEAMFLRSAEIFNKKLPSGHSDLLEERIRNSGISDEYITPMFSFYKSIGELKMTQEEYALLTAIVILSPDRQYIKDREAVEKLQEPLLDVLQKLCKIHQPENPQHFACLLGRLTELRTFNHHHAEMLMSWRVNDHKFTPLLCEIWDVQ
Experimental: In particular, the invention relates to compounds as described above wherein the compounds are capable of binding the NR1H4 receptor protein or a portion thereof according to SEQ ID NOS 1-4 shown in FIGS. 4A-4D, respectively, or a mammalian homologue thereof. The claimed compound can bind to the NR1H4 receptor protein or a portion thereof in a mixture comprising 10-200 ng of NR1H4 receptor protein or a portion thereof, preferably the ligand binding domain, 20 mM Tris/HCl at pH 7.9; 60 mM KCl; 5 mM MgCl2; 160 ng/μl BSA in a total volume of preferably about 25 μl.
For in vitro screening for compounds which influence FXR binding to coactivators, a fragment of the open reading frame of human FXR alpha (NR1H4-(Acc. No:AF384555)) encoding aminoacids 187-472 was amplified by standard RT PCR procedures (see SEQ ID NOS. 1 and 2 in FIGS. 4A and 4B, respectively). The starting material was total RNA derived from human liver. The resulting cDNA obtained after reverse transcription was subsequently cloned using the Gateway™ recombination technology (Invitrogen, USA) into the expression plasmid pDest15 (Invitrogen, USA). This construct was used to express a recombinant GST-FXR fusion protein in E. coli (BL21 strain). A pDEST 17 derivative clone harboring an additional sequence encoding amino acids 548-878 of human TIF2 (Acc. No: XM—011633 RefSeq) was constructed using Gateway™ recombination technology (Invitrogen, USA) in order to obtain a construct which was used to express recombinant His-tagged TIF2 fragment in E. coli. For E. coli expression of both constructs, plasmid DNA was transformed into chemically competent E. coli BL21 (Invitrogen, USA) and cells were grown to an OD600 of 0.4-0.7 before expression was induced by addition of 0.5 mM IPTG according instructions of the manufacturer (Invitrogen). After induction for 8 hours at 30° C., the cells were harvested by centrifugation for 10 minutes at 5000×g. Fusion proteins were affinity purified using Glutathion sepharose (Pharmacia) or Ni-NTA Agarose (QIAGEN) according to the instructions of the respective manufacturer. Recombinant proteins were dialyzed against 20 mM Tris/HCL pH 7.9; 60 mM KCl; 5 mM MgCl2; 1 mM DTT, 0.2 mM PMSF; 10% glycerol. The TIF2 fragment was subsequently biotinylated by addition of 40-120 μl of a biotinamidocaproate N-hydroxysuccinimide-ester (Sigma) solution (20 mg/ml in DMSO). […]
For screening of the compound libraries as provided for by the methods described in Examples 2, 3 and 4 below for substances which influence the FXR/Tif 2 interaction, Perkin Elmer LANCE technology was used. […] For ease of handling and reduction of background from compound fluorescence, LANCE technology makes use of generic fluorophore labels and time resoved detection. […]

Compound	Emax (full length human FXR; Table 6) [%]	Emax (full length human FXR; Tables 3-5) [%]	EC50 (full length human FXR; Tables 3-5) [nM]	EC50 (human FXR alpha (NR1H4); read-out: EC50 (effective binding concentration at FXR, half-maximal effective concentration)) [nM]	agonist activity at the NR1H4 human nuclear receptor (human FXR alpha (NR1H4))
O=C(O)C1CCC(CNc2nc(-c3ccccc3O)c(Cc3c(F)cccc3F)s2)CC1 (stereo not shown) [LN0000006316]	309	110	200	–	–
O=C(O)c1ccc(CNc2nc(-c3ccccc3O)c(Cc3c(F)cccc3F)s2)cc1 [LN0000006317]	223	115	1450	–	–
O=C(O)C1CCC(CNc2nc(-c3ccccc3O)c(Cc3cccc(F)c3F)s2)CC1 (stereo not shown) [LN0000006322]	–	115	–	–	–
O=C(O)c1ccc(CNc2nc(-c3ccccc3O)c(Cc3cccc(F)c3F)s2)cc1 [LN0000006323]	–	86	440	–	–
COc1ccccc1Cc1sc(NCC2CCC(C(=O)O)CC2)nc1-c1ccccc1O (stereo not shown) [LN0000006328]	–	116	4500	–	–
COc1ccccc1Cc1sc(NCc2ccc(C(=O)O)cc2)nc1-c1ccccc1O [LN0000006329]	–	105	730	–	–
O=C(O)CCCCCNc1nc(-c2ccccc2O)c(Cc2cccc(F)c2F)s1 [LN0000006346]	–	63	5120	–	–
COc1ccccc1Cc1sc(NCCCCCC(=O)O)nc1-c1ccccc1O [LN0000006347]	–	66	3100	–	–
O=C(O)C1CCC(CNc2nc(-c3cccc(O)c3)c(Cc3c(F)cccc3F)s2)CC1 (stereo not shown) [LN0000006348]	–	109	2390	–	–
O=C(O)c1ccc(CNc2nc(-c3cccc(O)c3)c(Cc3c(F)cccc3F)s2)cc1 [LN0000006349]	–	66	4050	–	–

Other lines, results leading:

Emax (full length human FXR; Table 6) [%]	Emax (full length human FXR; Tables 3-5) [%]	EC50 (full length human FXR; Tables 3-5) [nM]	EC50 (human FXR alpha (NR1H4); read-out: EC50 (effective binding concentration at FXR, half-maximal effective concentration)) [nM]	agonist activity at the NR1H4 human nuclear receptor (human FXR alpha (NR1H4))	Compound
340	92	360	–	–	O=C(O)C1CCC(CNc2nc(-c3cccc(O)c3)c(Cc3c(Cl)cccc3Cl)s2)CC1 (stereo not shown) [LN0000006365]
–	–	–	200	–	O=C(O)C1CCC(CNc2nc(-c3ccccc3O)c(Cc3c(F)cccc3F)s2)CC1 (stereo not shown) [formula (III)]
–	–	–	–	active as agonist	O=C(O)C1CCC(CNc2nc(-c3cccc(O)c3)c(Cc3c(Cl)cccc3Cl)s2)CC1 (stereo not shown) [formula (IV)]
–	–	–	–	active as agonist	O=C(O)c1ccc(CNc2nc(-c3ccccc3O)c(Cc3cccc(F)c3F)s2)cc1 [formula (V)]
–	–	–	–	active as agonist	COc1ccccc1Cc1sc(NCc2ccc(C(=O)O)cc2)nc1-c1ccccc1O [formula (VI)]

From patent US6974830B2, “NR1H4 nuclear receptor binding compounds” (Phenix Pharmaceuticals AG, priority 2001, dated 2005)
